pIC50: −log10 of the molar value. Where a name gives a salt, the structure may show the parent alone.

Assay [1] relates to C-myc. As to the kind of experiment: KMS.12.BM C-myc ELISA assay. As to conditions: Homo sapiens; KMS.12.BM cells, 2 hours, concentration required for 50% C-myc inhibition. The format is cell-based. On the procedure:
KMS.12.BM cell line (human myeloma) was purchased from JCRB (Osaka, Japan) and maintained in RPMI with 10% FBS culture medium. To measure the C-myc inhibitory activity of the compounds, the KMS.12.BM cells are plated in the RPMI culture medium at 75000 cells/well/per 200 μL into a 96-well flat bottom polystyrene tissue culture plate (Corning through VWR, NJ), in the presence or absence of a concentration range of test compounds. After 2 hours, cell are pelleted and lysed with Cell Extraction Buffer (BioSource, Carlsbad, Calif.) in the presence of protease inhibitors (Life Technologies, Grand Island, N.Y. and Sigma, St Louis, Mo.). Clarified lyses are tested in a C-myc commercial ELISA (Life Technologies, Grand Island, N.Y.). Compound inhibition is determined relative to cells cultured with no drug and the IC50 is reported as the compound concentration required for 50% C-myc inhibition. IC50 data for the Examples is presented in Table 10 as determined by Assay C1.
(An ELISA detects its analyte on a solid surface through an enzyme-linked reagent.)

Assay [2] has as its target BRD4-BD2 (Homo sapiens (Human), UniProt O60885). Nature of the assay: BRD4 AlphaScreen assay, BRD4-BD2. The format is binding. As to conditions: H4Ac4 peptide, 75 min, room temperature, read-out: BRD4 BD-2 enzyme IC50. Summed up:
(§1)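 AlphaScreen read after 75 min dark incubation at room temperature, inhibitors serially diluted in DMSO and added before other components. IC50 from fit of percent control activity versus log inhibitor concentration.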

In assay [3] the target is BRD4-BD1 (Homo sapiens (Human), UniProt O60885). As to the kind of experiment: BRD4 AlphaScreen assay, BRD4-BD1. The class given is binding. As to conditions: H4Ac4 peptide, 75 min, room temperature, read-out: BRD4 BD-1 enzyme IC50. In a few lines: as §1
For orientation: In Alpha technology, singlet oxygen from a donor bead excites a nearby acceptor bead.

The test system of assay [4] is KMS.12.BM cells. As to the kind of experiment: KMS.12.BM cell viability assay (Cell Titer-GLO, ATP quantitation). The class given is cell-based. The note with it: Homo sapiens, 72 h, 3 days, concentration required for 50% cell death, read-out: KMS cellular IC50. Summed up: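 Human myeloma KMS.12.BM cells, 5000 cells/well in RPMI with 10% FBS, were exposed to a compound concentration range for 3 days. Viability was read by Cell Titer-GLO ATP luminescence relative to untreated cells; IC50 is the concentration giving 50% cell death.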
(In general: Cellular ATP, detected with luciferase, serves as a proxy for viable cell number.)

In the case of `Cn1cc(-c2ccc3oc(CNC(=O)CC4CCCC4)nc3c2Oc2ccccc2)c2cc[nH]c2c1=O` [Example 109, 2-Cyclopentyl-N-{[5-(6-methyl-7-oxo-6,7-dihydro-1H-pyrrolo[2,3-c]pyridin-4-yl)-4-phenoxy-1,3-benzoxazol-2-yl]methyl}acetamide], the pIC50 in assay [1] is 5.00 to 6.00; in assay [2], over 7.00; in assay [3], over 7.00; in assay [4], at least 6.00.
Take `Cn1cc(-c2ccc3[nH]c(=O)[nH]c3c2OCC2CC2)c2cc[nH]c2c1=O` [Example 11, 4-(Cyclopropylmethoxy)-5-(6-methyl-7-oxo-6,7-dihydro-1H-pyrrolo[2,3-c]pyridin-4-yl)-1,3-dihydro-2H-benzimidazol-2-one]: the pIC50 in assay [1] was at least 6.00; in assay [2], over 7.00; in assay [3], over 7.00; in assay [4], at least 6.00.
On to `Cc1nc2c(Oc3ccc(F)cc3F)c(-c3cn(C)c(=O)c4[nH]ccc34)ccc2[nH]1` [Example 3, 4-[4-(2,4-Difluorophenoxy)-2-methyl-1H-benzimidazol-5-yl]-6-methyl-1,6-dihydro-7H-pyrrolo[2,3-c]pyridin-7-one trifluoroacetate], for which the pIC50 is at least 6.00 in assay [1], over 7.00 in assay [2], over 7.00 in assay [3] and at least 6.00 in assay [4].
With `Cn1cc(-c2ccc3c(ncn3C)c2Oc2ccc(F)cc2F)c2cn[nH]c2c1=O` [Example 18, 4-[4-(2,4-Difluorophenoxy)-1-methyl-1H-benzimidazol-5-yl]-6-methyl-1,6-dihydro-7H-pyrazolo[3,4-c]pyridin-7-one], the pIC50 in assay [1] was at least 6.00; in assay [2], over 7.00; in assay [3], over 7.00; in assay [4] it was at least 6.00.
Regarding `Cn1cc(-c2ccc3c([nH]c(=O)n3C)c2OC2CCCC2)c2cc[nH]c2c1=O` [Example 93, 4-(Cyclopentyloxy)-1-methyl-5-(6-methyl-7-oxo-6,7-dihydro-1H-pyrrolo[2,3-c]pyridin-4-yl)-1,3-dihydro-2H-benzimidazol-2-one], the negative logarithm of the IC50 (pIC50) was at least 6.00 in assay [1], over 7.00 in assay [2], over 7.00 in assay [3] and at least 6.00 in assay [4].
For `Cn1cc(-c2ccc3ocnc3c2Oc2ccccc2)c2cc[nH]c2c1=O` [Example 96, 6-Methyl-4-(4-phenoxy-1,3-benzoxazol-5-yl)-1,6-dihydro-7H-pyrrolo[2,3-c]pyridin-7-one], the negative logarithm of the IC50 (pIC50) is at least 6.00 in assay [1], over 7.00 in assay [2], over 7.00 in assay [3] and at least 6.00 in assay [4].
For the molecule `Cn1cc(-c2ccc3c([nH]c(=O)n3C)c2OCC2CCCC2)c2cc[nH]c2c1=O` [Example 92, 4-(Cyclopentylmethoxy)-1-methyl-5-(6-methyl-7-oxo-6,7-dihydro-1H-pyrrolo[2,3-c]pyridin-4-yl)-1,3-dihydro-2H-benzimidazol-2-one], the pIC50 in assay [1] is at least 6.00; in assay [2] it was over 7.00; in assay [3] it was over 7.00; in assay [4], at least 6.00.
For `Cc1nc2c(OCC3CC3)c(-c3cn(C)c(=O)c4[nH]ccc34)ccc2[nH]1` [Example 13, 4-[4-(Cyclopropylmethoxy)-2-methyl-1H-benzimidazol-5-yl]-6-methyl-1,6-dihydro-7H-pyrrolo[2,3-c]pyridin-7-one], the pIC50 in assay [1] was at least 6.00; in assay [2] it was over 7.00; in assay [3], over 7.00; in assay [4] it was at least 6.00.
Take `Cn1cc(-c2ccc3c([nH]c(=O)n3C)c2OCC2CC2)c2cc[nH]c2c1=O` [Example 74, 4-(Cyclopropylmethoxy)-1-methyl-5-(6-methyl-7-oxo-6,7-dihydro-1H-pyrrolo[2,3-c]pyridin-4-yl)-1,3-dihydro-2H-benzimidazol-2-one]: the pIC50 in assay [1] is at least 6.00; in assay [2], over 7.00; in assay [3], over 7.00; in assay [4] it was at least 6.00.
For `Cn1cc(-c2ccc3c(c2OCC2CCC2)n(Cc2ccccc2)c(=O)n3C)c2cc[nH]c2c1=O` [Example 64, 3-Benzyl-4-(cyclobutylmethoxy)-1-methyl-5-(6-methyl-7-oxo-6,7-dihydro-1H-pyrrolo[2,3-c]pyridin-4-yl)-1,3-dihydro-2H-benzimidazol-2-one], the pIC50 in assay [1] is at least 6.00; in assay [2] it was over 7.00; in assay [3] it was over 7.00; in assay [4], at least 6.00.
Consider `Cn1cc(-c2ccc3[nH]cnc3c2OCC2CC2)c2cc[nH]c2c1=O` [Example 12, 4-[4-(Cyclopropylmethoxy)-1H-benzimidazol-5-yl]-6-methyl-1,6-dihydro-7H-pyrrolo[2,3-c]pyridin-7-one], for which the negative logarithm of the IC50 (pIC50) in assay [1] was at least 6.00; in assay [2] it was over 7.00; in assay [3] it was over 7.00; in assay [4], at least 6.00.
Take `Cn1cc(-c2ccc3c([nH]c(=O)n3C)c2Oc2cccc(Cl)c2)c2cc[nH]c2c1=O` [Example 87, 4-(3-Chlorophenoxy)-1-methyl-5-(6-methyl-7-oxo-6,7-dihydro-1H-pyrrolo[2,3-c]pyridin-4-yl)-1,3-dihydro-2H-benzimidazol-2-one]: the negative logarithm of the IC50 (pIC50) was at least 6.00 in assay [1], over 7.00 in assay [2], over 7.00 in assay [3] and at least 6.00 in assay [4].
As to `Cn1cc(-c2ccc3ncn(CCN4CCOCC4)c3c2Oc2ccccc2)c2cc[nH]c2c1=O` [Example 42, 6-Methyl-4-[1-(2-morpholin-4-ylethyl)-7-phenoxy-1H-benzimidazol-6-yl]-1,6-dihydro-7H-pyrrolo[2,3-c]pyridin-7-one], the pIC50 in assay [1] was at least 6.00; in assay [2], over 7.00; in assay [3], over 7.00; in assay [4], at least 6.00.
On to `Cn1cc(-c2ccc3[nH]c(=O)[nH]c3c2Oc2ccccc2)c2cc[nH]c2c1=O` [Example 22, 5-(6-Methyl-7-oxo-6,7-dihydro-1H-pyrrolo[2,3-c]pyridin-4-yl)-4-phenoxy-1,3-dihydro-2H-benzimidazol-2-one], for which the pIC50 was at least 6.00 in assay [1], over 7.00 in assay [2], over 7.00 in assay [3] and at least 6.00 in assay [4].
For the molecule `Cn1cc(-c2ccc3c(c2OCC2CCC2)n(CCN2CCOCC2)c(=O)n3C)c2cc[nH]c2c1=O` [Example 60, 4-(Cyclobutylmethoxy)-1-methyl-5-(6-methyl-7-oxo-6,7-dihydro-1H-pyrrolo[2,3-c]pyridin-4-yl)-3-(2-morpholin-4-ylethyl)-1,3-dihydro-2H-benzimidazol-2-one], the pIC50 in assay [1] is at least 6.00; in assay [2], over 7.00; in assay [3], over 7.00; in assay [4] it was at least 6.00.
Regarding `Cn1cc(-c2ccc3c([nH]c(=O)n3C)c2Oc2ccccc2)c2cc[nH]c2c1=O` [Example 38, 1-Methyl-5-(6-methyl-7-oxo-6,7-dihydro-1H-pyrrolo[2,3-c]pyridin-4-yl)-4-phenoxy-1,3-dihydro-2H-benzimidazol-2-one], the pIC50 was at least 6.00 in assay [1], over 7.00 in assay [2], over 7.00 in assay [3] and at least 6.00 in assay [4].
For `CN(C)C(=O)Cn1cnc2c(Oc3ccc(F)cc3F)c(-c3cn(C)c(=O)c4[nH]ccc34)ccc21` [Example 34, 2-[4-(2,4-difluorophenoxy)-5-(6-methyl-7-oxo-6,7-dihydro-1H-pyrrolo[2,3-c]pyridin-4-yl)-1H-benzimidazol-1-yl]-N,N-dimethylacetamide], the negative logarithm of the IC50 (pIC50) in assay [1] was at least 6.00; in assay [2], over 7.00; in assay [3] it was over 7.00; in assay [4], at least 6.00.
Take `Cn1cc(-c2ccc3[nH]cnc3c2Oc2ccc(F)cc2F)c2cn[nH]c2c1=O` [Example 14, 4-[4-(2,4-Difluorophenoxy)-1H-benzimidazol-5-yl]-6-methyl-1,6-dihydro-7H-pyrazolo[3,4-c]pyridin-7-one]: the negative-log IC50 (pIC50) in assay [1] was at least 6.00; in assay [2], over 7.00; in assay [3] it was over 7.00; in assay [4] it was at least 6.00.
In the case of `Cn1cc(-c2ccc3oc(CNC(=O)c4ccccc4)nc3c2Oc2ccccc2)c2cc[nH]c2c1=O` [Example 106, N-{[5-(6-methyl-7-oxo-6,7-dihydro-1H-pyrrolo[2,3-c]pyridin-4-yl)-4-phenoxy-1,3-benzoxazol-2-yl]methyl}benzamide], the pIC50 in assay [1] was 5.00 to 6.00; in assay [2], over 7.00; in assay [3], over 7.00; in assay [4], at least 6.00.
On to `Cn1cc(-c2ccc3c(nnn3C)c2Oc2ccc(F)cc2F)c2cc[nH]c2c1=O` [Example 9, 4-[4-(2,4-Difluorophenoxy)-1-methyl-1H-1,2,3-benzotriazol-5-yl]-6-methyl-1,6-dihydro-7H-pyrrolo[2,3-c]pyridin-7-one], for which the negative-log IC50 (pIC50) in assay [1] is at least 6.00; in assay [2], over 7.00; in assay [3], over 7.00; in assay [4] it was at least 6.00.

Broadly, the pIC50 is the IC50 on a negative log10 scale, so that one unit is a factor of ten.

(Values after US9918990B2, “Substituted pyrrolo[2,3-c]pyridines and pyrazolo[3,4-c]pyridines as BET protein inhibitors” (Incyte Corporation, priority 2013, dated 2018).)
